Patent US20150252049A1, “MGLU2/3 ANTAGONISTS FOR THE TREATMENT OF AUTISTIC DISORDERS” (Hoffmann-La Roche Inc., priority 2012, published 2015)

Test system: BTBR T+tf/J (BTBR) mice
Test: 3-Chambered Social Test (animal vs. object)
Assay type: in vivo, mouse
Conditions: male BTBR-T+/tfj mice, 3-10-30 mg/kg p.o. 3 hours before habituation; effect especially in the first 5 minutes at 10 mg/kg (FIG. 2/3)
Method: Deficits in social interactions and social approach, unusual patterns of ultrasonic vocalization, and high levels of repetitive self-grooming are included.^20
The 3-Chambered Social Test is used to assess autistic-like behaviors. Shortly after a period of habituation a mouse's sociability is determined by evaluating the amount of time the test mouse spends approaching a wire cage (holding cup) containing an unfamiliar mouse.
48 male mice BTBR-T+/tfj, 8-9 weeks old, were used in the experiments described herein in 4 groups n=12/group. Further, 6 male stimulus mice (unfamiliar BTBR T+tf/J mice) of similar age and weight were used.
Low light of 20 Lux was used. With the doorways into the two side chambers closed, the test mouse was placed in the middle chamber and allowed to explore the apparatus for 10 min. Thereafter, the doorways were opened and the test mouse was allowed to explore the entire test box for 10 min. The cages were empty. The sociability test was conducted immediately following the habituation phase.
While the test mouse was enclosed in the center compartment of the test box a stimulus mouse was enclosed in a wire cage (holding cup) in one side chamber. […] The amount of time spent and the number of entries into each chamber was measured, as was the time spent in a small perimeter around the cup holding the stimulus mouse. […]

`CCC(=O)NS(=O)(=O)c1cccc(-c2cccc(-c3cc(-c4ccc(C(F)(F)F)cc4)cc(C)n3)n2)c1` [IIb] was tested, and the “social preference (duration in the chamber, duration sniffing)” value was “increased social preference”.
